The IC50 is the concentration that gives 50% inhibition.

The first assay deals with T1, Recombinant human cathepsin A (Homo sapiens, UniProt P10619).
T1 construct: Recombinant human cathepsin A (residues 29-480, with a C-terminal 10-His tag); 10-His (C); purchased R&D Systems 1049-SE
T1 sequence (P10619 29-326 limits assumed): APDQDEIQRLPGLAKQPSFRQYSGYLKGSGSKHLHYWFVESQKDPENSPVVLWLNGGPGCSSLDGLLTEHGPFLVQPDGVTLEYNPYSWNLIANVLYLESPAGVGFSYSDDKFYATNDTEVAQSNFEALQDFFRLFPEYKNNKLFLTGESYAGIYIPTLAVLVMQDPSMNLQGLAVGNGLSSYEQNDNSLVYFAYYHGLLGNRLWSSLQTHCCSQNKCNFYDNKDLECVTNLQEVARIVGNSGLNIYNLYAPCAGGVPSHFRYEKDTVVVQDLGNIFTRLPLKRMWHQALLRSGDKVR
T1 sequence (P10619 327-480 limits assumed): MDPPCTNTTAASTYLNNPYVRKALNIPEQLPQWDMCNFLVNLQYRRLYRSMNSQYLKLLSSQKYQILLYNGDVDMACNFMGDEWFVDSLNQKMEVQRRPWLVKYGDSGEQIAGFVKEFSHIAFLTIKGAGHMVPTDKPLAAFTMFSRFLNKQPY
Description: Cathepsin A inhibitory activity. The assay is classed as biochemical. As to conditions: activated recombinant human cathepsin A 833 ng/ml, Bodipy FL-labeled bradykinin 2 μM, pH 5.5, 15 min room temperature. The protocol:
a) Cathepsin a Inhibitory Activity
Recombinant human cathepsin A (residues 29-480, with a C-terminal 10-His tag; R&D Systems, #1049-SE) was proteolytically activated with recombinant human cathepsin L (R&D Systems, #952-CY). Briefly, cathepsin A was incubated at 10 μg/ml with cathepsin L at 1 μg/ml in activation buffer (25 mM 2-(morpholin-4-yl)-ethanesulfonic acid (MES), pH 6.0, containing 5 mM dithiothreitol (DTT)) for 15 min at 37° C. Cathepsin L activity was then stopped by the addition of the cysteine protease inhibitor E-64 (N-(trans-epoxysuccinyl)-L-leucine-4-guanidinobutylamide; Sigma-Aldrich, #E3132; dissolved in activation buffer/DMSO) to a final concentration of 10 μM.
The activated cathepsin A was diluted in assay buffer (25 mM MES, pH 5.5, containing 5 mM DTT) and mixed with the test compound (dissolved in assay buffer containing (v/v) 3% DMSO) or, in the control experiments, with the vehicle in a multiple assay plate. After incubation for 15 min at room temperature, as substrate then bradykinin carrying an N-Terminal®Bodipy FL (4,4-difluoro-5,7-dimethyl-4-bora-3a,4a-diaza-s-indacene-3-propionyl) label (JPT Peptide Technologies GmbH; dissolved in assay buffer) was added to the mixture. The final concentration of cathepsin A was 833 ng/ml and the final concentration of labeled bradykinin 2 μM. After incubation for 15 min at room temperature the reaction was stopped by the addition of stop buffer (130 mM 2-(4-(2-hydroxy-ethyl)-piperazin-1-yl)-ethanesulfonic acid, pH 7.4, containing (v/v) 0.013%®Triton X-100, 0.13% Coating Reagent 3 (Caliper Life Sciences), 6.5% DMSO and 20 μM ebelactone B (Sigma, #E0886)).
Uncleaved substrate and product were then separated by a microfluidic capillary electrophoresis on a LabChip® 3000 Drug Discovery System (12-Sipper-Chip; Caliper Life Sciences) and quantified by determination of the respective peak areas. Substrate turnover was calculated by dividing product peak area by the sum of substrate and product peak areas, and the enzyme activity and the inhibitory effect of the test compound thus quantified. From the percentage of inhibition of cathepsin A activity observed with the test compound at several concentrations, the inhibitory concentration IC50, i.e. the concentration which effects 50% inhibition of enzyme activity was, calculated.
`O=C(O)C[C@H](NC(=O)c1cc(NC(=O)c2ccccc2)n(-c2ccccc2)n1)c1ccc(Cl)cc1Cl` [Example 67, (S)-3-[(5-Benzoylamino-1-phenyl-1H-pyrazole-3-carbonyl)-amino]-3-(2,4-dichloro-phenyl)-propionic acid]: the IC50 stood at 106 nM.
Still for that read-out and setting: the result for `Cc1ccccc1[C@H](CC(=O)O)NC(=O)c1cc(NC(=O)CO[C@@H]2C[C@H](C)CC[C@H]2C(C)C)n(-c2ccccc2)n1` [Example 68, (S)-3-({5-[2-((1R,2S,5R)-2-Isopropyl-5-methyl-cyclohexyloxy)-acetylamino]-1-phenyl-1H-pyrazole-3-carbonyl}-amino)-3-o-tolyl-propionic acid] reads 1780 nM.
In the case of `Cc1ccccc1[C@H](CC(=O)O)NC(=O)c1cc(NC(=O)C(c2ccccc2)c2ccccc2)n(-c2ccccc2)n1` [Example 69, (S)-3-[(5-Diphenylacetylamino-1-phenyl-1H-pyrazole-3-carbonyl)-amino]-3-o-tolyl-propionic acid], the IC50 came out at 125 nM.
As to `CN(C(=O)c1ccccc1)c1cc(C(=O)N[C@@H](CC(=O)O)c2ccccc2Cl)nn1-c1ccccc1` [Example 70, (S)-3-{[5-(Benzoyl-methyl-amino)-1-phenyl-1H-pyrazole-3-carbonyl]-amino}-3-(2-chloro-phenyl)-propionic acid], the IC50 came out at 5.7 nM.
In the case of `CN(C(=O)c1ccccc1)c1cc(C(=O)N[C@@H](CC(=O)O)c2cccc(Cl)c2)nn1-c1ccccc1` [Example 71, (S)-3-{[5-(Benzoyl-methyl-amino)-1-phenyl-1H-pyrazole-3-carbonyl]-amino}-3-(3-chloro-phenyl)-propionic acid], the 50% inhibitory concentration (IC50) turned out to be 56.7 nM.
For `Cc1ccc([C@H](CC(=O)O)NC(=O)c2cc(N(C)C(=O)c3ccccc3)n(-c3ccccc3)n2)cc1` [Example 72, (S)-3-{[5-(Benzoyl-methyl-amino)-1-phenyl-1H-pyrazole-3-carbonyl]-amino}-3-p-tolyl-propionic acid], the IC50 came to 102 nM.
Consider `O=C(O)CC(NC(=O)c1cc(NC(=O)c2ccccc2)n(-c2ccccc2)n1)C1CCCCC1` (centres unmarked) [Example 74, 3-[(5-Benzoylamino-1-phenyl-1H-pyrazole-3-carbonyl)-amino]-3-cyclohexyl-propionic acid], for which the 50% inhibitory concentration (IC50) was 78.6 nM.
In the case of `O=C(O)CC(Cc1ccccc1)NC(=O)c1cc(NC(=O)c2ccccc2)n(-c2ccccc2)n1` (centres unmarked) [Example 75, 3-[(5-Benzoylamino-1-phenyl-1H-pyrazole-3-carbonyl)-amino]-4-phenyl-butyric acid], the 50% inhibitory concentration (IC50) amounted to 370 nM.
In the case of `CC(C)C[C@@H](CC(=O)O)NC(=O)c1cc(NC(=O)c2ccccc2)n(-c2ccccc2)n1` [Example 76, (S)-3-[(5-Benzoylamino-1-phenyl-1H-pyrazole-3-carbonyl)-amino]-5-methyl-hexanoic acid], the half-inhibitory concentration (IC50) was 22000 nM.
For `O=C(O)CC1(NC(=O)c2cc(NC(=O)c3ccccc3)n(-c3ccccc3)n2)CCCC1` [Example 77, {1-[(5-Benzoylamino-1-phenyl-1H-pyrazole-3-carbonyl)-amino]-cyclopentyl}-acetic acid], the half-inhibitory concentration (IC50) was 73.4 nM.
Turning to `O=C(O)C[C@H](NC(=O)c1cc(NC(=O)c2ccccc2)n(-c2ccccc2)n1)c1ccc(F)cc1` [Example 78, (S)-3-[(5-Benzoylamino-1-phenyl-1H-pyrazole-3-carbonyl)-amino]-3-(4-fluoro-phenyl)-propionic acid], the IC50 came to 34.1 nM.
On to `Cc1ccc([C@H](CC(=O)O)NC(=O)c2cc(NC(=O)c3ccccc3)n(-c3ccccc3)n2)c(C)c1` [Example 79, (S)-3-[(5-Benzoylamino-1-phenyl-1H-pyrazole-3-carbonyl)-amino]-3-(2,4-dimethyl-phenyl)-propionic acid], for which the IC50 stood at 108 nM.
As to `O=C(Nc1cc(C(=O)NCC(C(=O)O)c2ccccc2)nn1-c1ccccc1)c1ccccc1` (centres unmarked) [Example 82, 3-[(5-Benzoylamino-1-phenyl-1H-pyrazole-3-carbonyl)-amino]-2-phenyl-propionic acid], the concentration for half-maximal inhibition (IC50) is 4870 nM.
`O=C(O)C[C@H](NC(=O)c1cc(NC(=O)c2ccccc2)n(-c2ccccc2)n1)c1ccccc1F` [Example 83, (S)-3-[(5-Benzoylamino-1-phenyl-1H-pyrazole-3-carbonyl)-amino]-3-(2-fluoro-phenyl)-propionic acid]: the half-maximal inhibitory concentration (IC50) was found to be 147 nM.
The same measure, in the same setting: the result for `O=C(O)C[C@H](NC(=O)c1cc(NC(=O)c2ccccc2)n(-c2ccccc2)n1)c1ccccc1C(F)(F)F` [Example 84, (S)-3-[(5-Benzoylamino-1-phenyl-1H-pyrazole-3-carbonyl)-amino]-3-(2-trifluoromethyl-phenyl)-propionic acid] reads 386 nM; that for `CCNc1cc(C(=O)N[C@@H](CC(=O)O)c2ccccc2C)nn1-c1ccccc1` [Example 85, (S)-3-[(5-Ethylamino-1-phenyl-1H-pyrazole-3-carbonyl)-amino]-3-o-tolyl-propionic acid], 80.2 nM.

The subject of the next assay is platelet aggregation.
Experiment: not given
Conditions: hypertensive animals; H. Ostrowska et al., J. Cardiovasc. Pharmacol. 45 (2005); cited from earlier work.
`CC[C@@H](C)[C@@H](O)[C@H](C)C(=O)[C@H](C)/C=C(\C)C[C@H](C)[C@@H]1OC(=O)[C@H]1CC` [ebelactone B]: the platelet aggregation result is recorded as “suppresses platelet aggregation”.

Values taken from patent US8962671B2, “Amino-substituted 3-heteroaroylamino-propionic acid derivatives and their use as pharmaceuticals” (Sanofi, priority 2011, dated 2015).
